Measurements reported in the supplement of paper PMC10307832.

Tests used:
Test in all cases: relative viability (nuclei count vs DMSO), 5 days (fraction); higher = more cells survive
201T = tested on: 201T
How it was run: (§1)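 After 5 days of treatment, lung cancer cells in 1536-well plates were fixed and stained in a single step (final 0.05% Triton X-100, 1% formaldehyde, 1 ug/ml Hoechst) and their nuclei counted on 4× images. Treatment had been applied by pin tool the day after seeding as one drug alone or as a fixed anchor-drug dose with five library-drug doses (not always all listed) in √10 steps. Relative viability is the nuclei count of treated wells divided by that of vehicle wells, and values are medians of duplicate plates.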

BEN = tested on: BEN
How it was run: as §1

CAL-12T = tested on: CAL-12T
How it was run: as §1

HCC-78 = tested on: HCC-78
How it was run: as §1

HOP-62 = tested on: HOP-62
How it was run: as §1

LCLC-97TM1 = tested on: LCLC-97TM1
How it was run: as §1

LOU-NH91 = tested on: LOU-NH91
How it was run: as §1

NCI-H1355 = tested on: NCI-H1355
How it was run: as §1

NCI-H1395 = tested on: NCI-H1395
How it was run: as §1

NCI-H1563 = tested on: NCI-H1563
How it was run: as §1

NCI-H1651 = tested on: NCI-H1651
How it was run: as §1

NCI-H1793 = tested on: NCI-H1793
How it was run: as §1

NCI-H1915 = tested on: NCI-H1915
How it was run: as §1

NCI-H1944 = tested on: NCI-H1944
How it was run: as §1

NCI-H2126 = tested on: NCI-H2126
How it was run: as §1

NCI-H2347 = tested on: NCI-H2347
How it was run: as §1

NCI-H3122 = tested on: NCI-H3122
How it was run: as §1

NCI-H322M = tested on: NCI-H322M
How it was run: as §1

NCI-H441 = tested on: NCI-H441
How it was run: as §1

NCI-H650 = tested on: NCI-H650
How it was run: as §1

NCI-H838 = tested on: NCI-H838
How it was run: as §1

SK-LU-1 = tested on: SK-LU-1
How it was run: as §1

SW 1573 = tested on: SW 1573
How it was run: as §1

Cc1cn(-c2cc(NC(=O)c3ccc(C)c(Nc4nccc(-c5cccnc5)n4)c3)cc(C(F)(F)F)c2)cn1 [Nilotinib] + N=C(N)NC(=N)NCCc1ccccc1 [Phenformin] (partner 250 µM)
relative viability (201T; first compound 0.003162 µM): 0.48 | relative viability (201T; first compound 0.01 µM): 0.454 | relative viability (201T; first compound 0.03162 µM): 0.477 | relative viability (201T; first compound 0.1 µM): 0.491 | relative viability (BEN; first compound 0.001 µM): 0.264 | relative viability (BEN; first compound 0.003162 µM): 0.292 | relative viability (BEN; first compound 0.01 µM): 0.237 | relative viability (BEN; first compound 0.03162 µM): 0.259 | relative viability (BEN; first compound 0.1 µM): 0.289 | relative viability (CAL-12T; first compound 0.001 µM): 0.554 | relative viability (CAL-12T; first compound 0.003162 µM): 0.563 | relative viability (CAL-12T; first compound 0.01 µM): 0.701 | relative viability (CAL-12T; first compound 0.03162 µM): 0.436 | relative viability (CAL-12T; first compound 0.1 µM): 0.47 | relative viability (HCC-78; first compound 0.001 µM): 0.786 | relative viability (HCC-78; first compound 0.003162 µM): 0.643 | relative viability (HCC-78; first compound 0.01 µM): 0.706 | relative viability (HCC-78; first compound 0.03162 µM): 0.637 | relative viability (HCC-78; first compound 0.1 µM): 0.636 | relative viability (HOP-62; first compound 0.001 µM): 0.512 | relative viability (HOP-62; first compound 0.003162 µM): 0.706 | relative viability (HOP-62; first compound 0.01 µM): 0.771 | relative viability (HOP-62; first compound 0.03162 µM): 0.444 | relative viability (HOP-62; first compound 0.1 µM): 0.441 | relative viability (LCLC-97TM1; first compound 0.001 µM): 0.393 | relative viability (LCLC-97TM1; first compound 0.003162 µM): 0.468 | relative viability (LCLC-97TM1; first compound 0.01 µM): 0.467 | relative viability (LCLC-97TM1; first compound 0.03162 µM): 0.426 | relative viability (LCLC-97TM1; first compound 0.1 µM): 0.453 | relative viability (LOU-NH91; first compound 0.001 µM): 0.752 | relative viability (LOU-NH91; first compound 0.003162 µM): 0.736 | relative viability (LOU-NH91; first compound 0.01 µM): 0.861 | relative viability (LOU-NH91; first compound 0.03162 µM): 0.663 | relative viability (LOU-NH91; first compound 0.1 µM): 0.75 | relative viability (NCI-H1355; first compound 0.001 µM): 0.451 | relative viability (NCI-H1355; first compound 0.003162 µM): 0.426 | relative viability (NCI-H1355; first compound 0.01 µM): 0.401 | relative viability (NCI-H1355; first compound 0.03162 µM): 0.361 | relative viability (NCI-H1355; first compound 0.1 µM): 0.424 | relative viability (NCI-H1395; first compound 0.001 µM): 0.453 | relative viability (NCI-H1395; first compound 0.003162 µM): 0.403 | relative viability (NCI-H1395; first compound 0.01 µM): 0.49 | relative viability (NCI-H1395; first compound 0.03162 µM): 0.43 | relative viability (NCI-H1395; first compound 0.1 µM): 0.415 | relative viability (NCI-H1563; first compound 0.001 µM): 0.635 | relative viability (NCI-H1563; first compound 0.003162 µM): 0.689 | relative viability (NCI-H1563; first compound 0.01 µM): 0.609 | relative viability (NCI-H1563; first compound 0.03162 µM): 0.635 | relative viability (NCI-H1563; first compound 0.1 µM): 0.61 | relative viability (NCI-H1651; first compound 0.001 µM): 0.346 | relative viability (NCI-H1651; first compound 0.003162 µM): 0.392 | relative viability (NCI-H1651; first compound 0.01 µM): 0.437 | relative viability (NCI-H1651; first compound 0.03162 µM): 0.308 | relative viability (NCI-H1651; first compound 0.1 µM): 0.356 | relative viability (NCI-H1793; first compound 0.001 µM): 0.36 | relative viability (NCI-H1793; first compound 0.003162 µM): 0.363 | relative viability (NCI-H1793; first compound 0.01 µM): 0.357 | relative viability (NCI-H1793; first compound 0.03162 µM): 0.196 | relative viability (NCI-H1793; first compound 0.1 µM): 0.232 | relative viability (NCI-H1915; first compound 0.001 µM): 0.372 | relative viability (NCI-H1915; first compound 0.003162 µM): 0.394 | relative viability (NCI-H1915; first compound 0.01 µM): 0.413 | relative viability (NCI-H1915; first compound 0.03162 µM): 0.372 | relative viability (NCI-H1915; first compound 0.1 µM): 0.381 | relative viability (NCI-H1944; first compound 0.001 µM): 0.193 | relative viability (NCI-H1944; first compound 0.003162 µM): 0.216 | relative viability (NCI-H1944; first compound 0.01 µM): 0.222 | relative viability (NCI-H1944; first compound 0.03162 µM): 0.181 | relative viability (NCI-H2126; first compound 0.001 µM): 0.546 | relative viability (NCI-H2126; first compound 0.003162 µM): 0.535 | relative viability (NCI-H2126; first compound 0.01 µM): 0.538 | relative viability (NCI-H2126; first compound 0.03162 µM): 0.534 | relative viability (NCI-H2126; first compound 0.1 µM): 0.562 | relative viability (NCI-H2347; first compound 0.001 µM): 0.386 | relative viability (NCI-H2347; first compound 0.003162 µM): 0.308 | relative viability (NCI-H2347; first compound 0.01 µM): 0.551 | relative viability (NCI-H2347; first compound 0.03162 µM): 0.277 | relative viability (NCI-H2347; first compound 0.1 µM): 0.327 | relative viability (NCI-H3122; first compound 0.001 µM): 0.36 | relative viability (NCI-H3122; first compound 0.003162 µM): 0.375 | relative viability (NCI-H3122; first compound 0.01 µM): 0.341 | relative viability (NCI-H3122; first compound 0.03162 µM): 0.352 | relative viability (NCI-H3122; first compound 0.1 µM): 0.309 | relative viability (NCI-H322M; first compound 0.001 µM): 0.781 | relative viability (NCI-H322M; first compound 0.003162 µM): 0.702 | relative viability (NCI-H322M; first compound 0.01 µM): 0.87 | relative viability (NCI-H322M; first compound 0.03162 µM): 0.741 | relative viability (NCI-H322M; first compound 0.1 µM): 0.833 | relative viability (NCI-H441; first compound 0.001 µM): 0.798 | relative viability (NCI-H441; first compound 0.003162 µM): 0.89 | relative viability (NCI-H441; first compound 0.01 µM): 0.896 | relative viability (NCI-H441; first compound 0.03162 µM): 0.648 | relative viability (NCI-H441; first compound 0.1 µM): 0.881 | relative viability (NCI-H650; first compound 0.001 µM): 0.444 | relative viability (NCI-H650; first compound 0.003162 µM): 0.428 | relative viability (NCI-H650; first compound 0.01 µM): 0.447 | relative viability (NCI-H650; first compound 0.03162 µM): 0.38 | relative viability (NCI-H650; first compound 0.1 µM): 0.397 | relative viability (NCI-H838; first compound 0.001 µM): 0.599 | relative viability (NCI-H838; first compound 0.003162 µM): 0.613 | relative viability (NCI-H838; first compound 0.01 µM): 0.695 | relative viability (NCI-H838; first compound 0.03162 µM): 0.492 | relative viability (NCI-H838; first compound 0.1 µM): 0.51 | relative viability (SK-LU-1; first compound 0.001 µM): 0.47 | relative viability (SK-LU-1; first compound 0.003162 µM): 0.455 | relative viability (SK-LU-1; first compound 0.01 µM): 0.597 | relative viability (SK-LU-1; first compound 0.03162 µM): 0.402 | relative viability (SK-LU-1; first compound 0.1 µM): 0.306 | relative viability (SW 1573; first compound 0.001 µM): 0.405 | relative viability (SW 1573; first compound 0.003162 µM): 0.445 | relative viability (SW 1573; first compound 0.01 µM): 0.412 | relative viability (SW 1573; first compound 0.03162 µM): 0.179 | relative viability (SW 1573; first compound 0.1 µM): 0.289
